Test results as given in patent US4317823A, “Pyrazolobenzodiazepinones, their intermediates, their compositions and their use” (Byk Gulden Lomberg Chemische Fabrik GmbH, priority 1979, dated 1982).

How the values were obtained:
Shay rats = test: Anti-ulcerogenic action (protective action on the stomach), Shay rats: pylorus ligature plus oral acetylsalicylic acid, ulcer index; format: in vivo; details: for TQ LD50/ED50 (therapeutic quotient): LD50 i.v. mice / ED50 p.o. rats; for ED50: Rattus norvegicus, Shay rats, oral 1 hour before pylorus ligature, dose which reduces the ulcer index by 50% compared with the control group, read-out: Protective action on the stomach ED50 administered perorally to rats; for dose dependence of the anti-ulcerogenic action (dose/action curve): Shay model
Description: ED50 = the dose which reduces the ulcer index for the group treated
by 50% compared with the control group
The anti-ulcerogenic action is tested by a method using the so-called Shay rats:
(§1) Ulcers are provoked in rats which have been starved for 24 hours (female rats, 180 to 200 g, 4 animals in a cage with a high grille) by means of a pylorus ligature (under anaesthesia with diethyl ether) and oral administration of 100 mg/10 ml/kg of acetylsalicylic acid. The substances to be tested are administered orally (10 ml/kg) 1 hour before the pylorus ligature. The closure of the wound is effected by means of Michel's clips. The animals are killed 4 hours afterwards under ether anaesthesia by dislocating the atlas, and the stomach is cut out. The stomach is opened longitudinally and is fixed on a cork slab, the quantity of gastric juice secreted (volume) having been determined beforehand; the number and size (=diameter) of ulcers present are determined by means of a stereomicroscope at a 10-fold magnification. The product of the degree of severity (in accordance with the following rating scale) and the number of the ulcers is used as an individual ulcer index.
ulcer diameter 0.1-1.4 mm 1
The reduction in the average ulcer index in each group treated compared with that of the control group (=100%) is used as a measure of the anti-ulcerogenic effect. The ED50 indicates the dose which reduces the average ulcer index by 50%.

stomach secretion = test: Inhibition of stomach secretion (gastric juice volume) in rats; format: in vivo, rat; details: 4 hours after administration of the antiulcerogenic ED50
Description: *% inhibition = inhibition (in %) of stomach secretion 4 hours after
administration of the antiulcerogenic ED50
as §1

[1] = Determination of toxicity, intravenous LD50 in mice; details: mouse, in vivo, female NMRI mice, 7 days observation, 5 animals per dose, read-out: Toxicity LD50 administered intravenously to mice
Description: LD50 = the dose at which 50% of the animals die
The toxicity investigations are carried out on female NMRI mice (body weight 22 to 26 g). The animals (5 animals per dose) receive feed and water ad lib. Various doses of the substances are administered intravenously (duration of injection 1 minute). The observation period is 7 days. The LD50 (the dose at which 50% of the animals die) is determined by means of a linear regression.

Row | SMILES | TQ LD50/ED50 (therapeutic quotient) (Shay rats) | ED50 (Shay rats) [mg/kg] | increase in the anti-ulcerogenic action above the ED50 (Shay rats; even at 300 mg/kg) | dose dependence of the anti-ulcerogenic action (dose/action curve) (Shay rats; rats) | % inhibition of stomach secretion in rats (stomach secretion) [%] | inhibitory effect (anti-ulcerogenic action) (Shay rats; rats, 30 mg/kg) | LD50 at 168 h [1] [mg/kg]
1 | CC1(C)[C@@H](OC(=O)CCC(=O)O)CC[C@]2(C)[C@H]3C(=O)C=C4[C@@H]5C[C@@](C)(C(=O)O)CC[C@]5(C)CC[C@@]4(C)[C@]3(C)CC[C@@H]12 [Compound 1, carbenoxolone, reference compound] | 4.1 | ~70 | not possible to achieve any substantial increase in the anti-ulcerogenic action | flattens out very considerably | 7 |  | 
2 | Cc1nn(C)c2c1N(C(=O)CN1CCN(C)CC1)c1ccccc1NC2=O [Compound 2, 1,3-dimethyl-4-[(4-methylpiperazin-1-yl)acetyl]-1,4,9,10-tetrahydropyrazolo[4,3-b][1,5]benzodiazepin-10-one] | 84.0 | 2.5 |  | depends strictly on the dose | 20 | up to 95% | 210
